Consider one substance from patent US20220177587A1, “METHODS AND USES OF VARIANT CD80 FUSION PROTEINS AND RELATED CONSTRUCTS” (Alpine Immune Sciences, Inc., priority 2018, published 2022).

For data set [1], the system named is primary human pan T cells. Briefly: Cytokine production following PD-L1-dependent costimulation. In kind it is cell-based. The conditions noted are these: mitomycin-c treated K562/OKT3/PDL1 aAPC; FIG. 6.
The target in another data set is T1, PD-L1/PD-1 interaction (Homo sapiens, UniProt Q9NZQ7).
T1 construct: expressed in transfected cells
T1 sequence (Q9NZQ7 19-290): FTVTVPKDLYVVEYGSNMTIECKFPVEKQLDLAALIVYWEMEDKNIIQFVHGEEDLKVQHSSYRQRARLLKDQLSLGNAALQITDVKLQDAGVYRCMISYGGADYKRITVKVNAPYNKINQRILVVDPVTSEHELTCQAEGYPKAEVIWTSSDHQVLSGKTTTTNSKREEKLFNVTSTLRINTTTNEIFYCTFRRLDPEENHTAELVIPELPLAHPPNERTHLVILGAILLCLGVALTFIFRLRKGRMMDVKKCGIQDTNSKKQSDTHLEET
Briefly: PD-L1/PD-1 binding and blocking on CHO/PD-L1 cells. The conditions noted are these: fluorescently conjugated PD-1-Fc; FIG. 7. As for the experimental part:
Binding of selected immunomodulatory fusion proteins to cells expressing PD-L1 was assessed to test for blocking of the PD-L1/PD-1 interaction. […] Samples were acquired on a flow cytometer and MFIs of the fluorescently labeled PD-1 were determined by Flowjo software analysis.
The multivalent variant CD80 IgSF domain fusion proteins were assessed to test for blocking of the PD-L1/PD-1 and CTLA-4/CD80 interaction performed substantially as described in Example 15. CHO/OKT3/PD-L1 and CHO/CTLA-4 cells were counted and plated at 100,000 cells/well and then incubated with fluorescently conjugated PD-1-Fc and CD80-Fc. Exemplary multivalent variant CD80 IgSF domain fusion proteins were incubated with the cells for 30 minutes. […] Cells were washed and incubated with 100 nM fluorescently conjugated PD-1-Fc and CD80-Fc competitor for 30 minutes. Cells were then washed and samples were acquired on a flow cytometer and MFIs of the fluorescently labeled molecules were determined.

The next data set deals with MC38 hPD-L1 tumor cells. Briefly: Flow cytometry of tumors and draining lymph nodes of treated mice. In kind it is in vivo, mouse. The conditions noted are these: three days following the 2nd dose; vs Fc control or anti-PD-L1. The source says: Tissues were processed to single cell suspensions (tumors were enzymatically digested as a part of the processing, whereas draining LN were not), and subjected to multi-color flow cytometric analysis of CD8+ T cells on the CD45+ cell subset (immune cells in either the LN or tumor), as well as % hIgG+ staining on the CD45− cell subset (tumor cells) to detect molecules (CD80-IgV-Fc or anti-PD-L1) bound to the tumor cells.
Background: In flow cytometry, cells or beads pass a laser one at a time.

In data set [2] the test system is PBMC obtained from CMV seropositive donor. Briefly: Cytomegalovirus (CMV) antigen-specific T cell functional assay. In kind it is cell-based, human. The protocol:
Peripheral blood mononuclear cells (PBMC) obtained from CMV seropositive donor were thawed and CMV lysate added at 1 μg/mL to 250,000/well PBMC. […] In addition, the anti-PD-1 antibody alone was also tested. An Fc only molecule was also tested as control. Supernatant was collected 48 hours after incubation to assay IL-2 by ELISA.
The multivalent variant CD80 IgSF domain fusion proteins were assessed to test for IL-2 production in the CMV assay substantially as described in Example 22. Exemplary multivalent variant CD80 IgSF domain fusion proteins generated as described above were tested at various concentrations from 100000 pM to 46 pM

The next data set is described as follows: Mouse PK model. In kind it is in vivo. The conditions noted are these: mouse PK model estimate. The source says: A PK model was designed as a two compartment model with intercompartmental distribution (Q) between the first compartment (Central Compartment, V1) and the second compartment (Peripheral Compartment, V2). To capture intraperitoneal (IP) or subcutaneous (SC) injection routes, a third compartment (Depot Compartment) was included with a first-order rate constant (Ka) linking the third compartment uni-directionally to the first compartment. The model also included a constant F to account for loss in the amount of drug available to diffuse from the third compartment (Depot Compartment) to the first compartment (Central Compartment, V1) due to IP or SC injection. The total amount of available drug in the third compartment (Depot Compartment) is described as F×Dose. For intravenous injections (IV), the third compartment (Depot Compartment) was omitted.
Drug clearance (CL) from the first compartment (Central Compartment, V1) was modeled differently for each species. In the mouse model, a time-dependent increase in clearance due to the formation of anti-drug antibodies was accounted for as follows:
For monkeys, linear clearance from the first compartment (Central Compartment, V1) was assumed.
PK was also compared in tumor-bearing versus non-tumor-bearing mice. […] All treatments were administered IP. PK was determined in tumor-bearing mice in all groups and compared to the predicted PK in non-tumor bearing mice.

Data set [3] deals with huPD-L1/MC38 cells. Briefly: huPD-L1 MC38 tumor model, combination with oxaliplatin. In kind it is in vivo, mouse. The protocol:
To test the anti-tumor activity of the exemplary variant, it was evaluated alone or in combination with the platinum-based chemotherapeutic agent, oxaliplatin, in mice bearing human PD-L1-expressing MC38 tumors, which is a syngeneic mouse colon carcinoma solid tumor model.
The huPD-L1 MC38 cell line was generated by transducing parental MC38 cells with huPD-L1 using viral transduction. Eight-week old female C57/BL6NJ mice (The Jackson Laboratories, Sacramento, Calif.) were implanted subcutaneously with 0.5×10^6 huPD-L1/MC38 cells. For injections, 0.1 mL of cells (0.5×10^6 cells) were injected subcutaneously (SC) in the right mid-flank region.
On day 1, mice were randomized into four groups of 10 mice each, with all mice in each group having about equal mean tumor volumes (˜108 mm^3). Tumors were measured with electronic calipers two-dimensionally twice weekly, beginning on day 7 post-tumor cell implant (referred to as “day 1”). Tumor volume was calculated as length×(width×2)×0.5, with the length being the longer of the two measurements.
As shown, 30% of the mice in the monotherapy group were tumor free by the end of the study.

Data set [4] relates to huPD-L1/MC38 cells. The data set is described as follows: huPD-L1 MC38 tumor model, combination with anti-CTLA-4. In kind it is in vivo, mouse. The protocol:
Eight-week old female C57/BL6NJ mice (The Jackson Laboratories, Sacramento, Calif.) were implanted subcutaneously with 1.5×10^6 huPD-L1/MC38 cells (described in Example 27. On days 8, 11 or 14 post-tumor cell implant mice, the tested molecules were delivered through intraperitoneal (IP) injection as set forth in Table E40. Tumor volume was determined substantially as described in Example 27.

Data set [5] deals with human PD-L1-transduced MC38 tumor. The data set is described as follows: huPD-L1 MC38 tumor model, combination with anti-PD-L1 or anti-CD28 blocking antibodies. In kind it is in vivo, mouse. The protocol: Anti-tumor activity was evaluated by serial tumor measurements.
A further data set addresses CD28 (Homo sapiens, UniProt P10747). The data set is described as follows: Jurkat/IL2 + K562/OKT3/PD-L1 reporter assay. In kind it is cell-based. Also noted: host or cells: Jurkat cells expressing an IL-2-luciferase reporter. The conditions noted are these: IgV-Fc (inert); various concentrations; FIG. 5. A general note: In a reporter assay the amount or activity of a reporter protein is the signal.

Setting [6] is: in combination with oxaliplatin.

For the substance “H18Y/A26E/E35D/M47L/V68M/A71G/D90G: variant CD80 IgV-Fc (inert), IgV SEQ ID NO:491”, the “IL-2 secretion in culture supernatants” value in [1] is on record as “resulted in IL-2 secretion in culture supernatants”. The “blocking of binding of PD-1 to PD-L1” value with PD-L1/PD-1 interaction is “antagonize or block binding of PD-1 to PD-L1”. In addition, the “percentages of CD8+ T cells in TIL and LN” value in the data set on MC38 hPD-L1 tumor cells was “significantly greater”. Besides, the IL-2 production entry in data set [2] (alone, 48 hours, FIG. 23) was “showed augmentation of IL-2 production compared to the Fc only control”. Moreover, the IL-2 production result in data set [2] (in combination with 50 nM anti-PD-1 antibody (nivolumab)) is “greater increase in IL-2 production compared to levels of IL-2 production in the presence of either molecule alone”. Moreover, in the data set “Mouse PK model”, the CL is listed as 1.34 mL/day, the F was 99%, the Ka is 4.53 day⁻¹ and the Q was 26.5 mL/day. For the same substance, in the data set “Mouse PK model”, the V1 is 1.94 mL and the V2 is recorded as 8.88 mL. In addition, the β in “Mouse PK model” (time-dependent clearance constant) was 0.0685 day⁻¹. In the data set on huPD-L1/MC38 cells [3] (setting [6]), the tumor free mice is reported as 90% and the “tumor growth over time” value is recorded as “significantly greater reductions in tumor growth over time were observed than with either of the agents alone”. In addition, in the data set with huPD-L1/MC38 cells [3] (in combination with oxaliplatin, day 25), the “mean TGI” value is approximately 100%. Besides, the median tumor volume result in the data set with huPD-L1/MC38 cells [3] (in combination with oxaliplatin, eleven days after start of dosing) was “dropped to zero”. For the same substance, in the data set with huPD-L1/MC38 cells [3] (monotherapy), the antitumor activity entry is recorded as “had potent antitumor activity” and the “tumor free mice by the end of the study” value is listed as 30%. In addition, the “tumor growth over time” value in the data set with huPD-L1/MC38 cells [4] (in combination with anti-CTLA-4) is “significantly greater reduction in tumor growth over time was observed than with either agent alone”. Also, in the data set with huPD-L1/MC38 cells [4] (monotherapy), the antitumor activity result is on record as “had potent antitumor activity”. Moreover, in [5] (coadministration with anti-CD28 or anti-PD-L1), the antitumor activity entry is given as “coadministration with either anti-CD28 or anti-PD-L1 reduced the antitumor activity”. For the same substance, in [5] (monotherapy 100 μg IP), the antitumor activity result is “demonstrated activity superior to PD-L1 blockade alone”. In addition, the “PD-L1 dependent CD28 costimulation (luciferase activity)” value in the data set with CD28 is “induced PD-L1 dependent CD28 costimulation in a dose-dependent manner”.
